Laboratory results as given in US12721848B2, “Pharmaceutical composition for preventing or treating graft versus host disease comprising thiamine derivatives” (Kyungpook National University Industry-Academic Cooperation …, priority 2020, dated 2026).

Tests used:
[1] = test system: graft versus host disease (GVHD) model mice
Excerpt: Referring to FIG. 2A, 5-week-old BALB/c male mice were acclimatized for 1 week, irradiated with 800 cGy radiation throughout the body, and then injected with 5×10^6 C57BL/6J-derived bone marrow cells and 1×10^7 splenocytes derived therefrom via IV injection, thereby constructing a GVHD in vivo model (positive control group, Positive). The syngeneic control group (Syngeneic) was constructed in the same manner as above while BALB/c-derived bone marrow cells were selected as the bone marrow cells to be injected.
The fursultiamine administration group (Fur50) was constructed by daily oral gavage of fursultiamine HCl at 50 mg/kg to the GVHD in vivo model.
The treatment effect of fursultiamine was investigated on the constructed experimental groups by measuring the change in weight every 3 days.
On Day 14, the comparison between the amounts of generation of CD4+ T cells and CD4+IFNg+ T cells, which are major factors causing GVHD, was performed in the spleens isolated from the mice.
On Day 14 of inducing the GVHD in vivo model, liver and large intestine tissues were extracted from the mice, fixed in 4% paraformaldehyde for 48 hours, and then embedded in paraffin. The resultant tissues were sliced into 5 μm sections and then subjected to hematoxylin and eosin (H&E) staining. (bar=100 um)

[2] = test system: allo-reactive CD4+IFNg+ T cell generation; test: mixed lymphocyte reaction (GVHD in vitro validation model), flow cytometry; type: cell-based, mouse; conditions: for Amount of generation (%) of CD4+IFNg+ T cells: BALB/c irradiated splenocytes + C57BL6/J CD4+ T cells, 5 days, positive control 37.4, syngeneic control 15.3
Excerpt: A high amount of CD4+IFNg+ T cell generated can be inferred to allow the proliferation of T cells against allogenic antigens, thereby attacking the body organs of a patient. Therefore, a graft versus host disease (GVHD) in vitro validation model was subjected to a mixed lymphocyte reaction to compare the degree of allo-reactive CD4+IFNg+ T cell generation among thiamine derivatives by flow cytometry.
Specifically, BALB/c mice were sacrificed by cervical dislocation, and then the spleens were extracted, followed by erythrocyte lysis using ACK lysing buffer. Thereafter, the isolated spleen cells were irradiated at 2500 cGy.
The positive group was treated with 10, 50, and 100 uM benfotiamine, 1, 5, and 10 uM allithiamine, and 10, 50, and 100 uM fursultiamine to prepare experimental groups.
Thereafter, the cells were cultured in RPMI1640 (10% FBS, 1% penicillin streptomycin) at 37° C. for 5 days, and the cells were separated, followed by flow cytometry, to investigate the degree of CD4+IFNg+ T cell generation.

[3] = spleen, Day 14, 50 mg/kg daily oral, in words

| SMILES | infiltration of immune cells in the liver tissue (H&E staining) ([1]; Day 14, 50 mg/kg daily oral, versus positive control group) | degree of infiltration of inflammatory cells into the liver and colon ([1]; GVHD-induced mouse model, summary statement) | change in weight compared with the GVHD in vivo model ([1]; fursultiamine HCl 50 mg/kg daily oral gavage, Day 12 of oral administration) | amount of generation of allogenic CD4+ T cells [1, 3] | amount of generation of allogenic CD4+IFNg+ T cells [1, 3] | Amount of generation of CD4+IFNg+ T cells (%) ([1]; spleen, Day 14, fursultiamine HCl 50 mg/kg daily oral gavage, positive control 18.3, syngeneic control 3.2) | Amount of generation of CD4+ T cells (%) ([1]; spleen, Day 14, fursultiamine HCl 50 mg/kg daily oral gavage, positive control 21.1, syngeneic control 6.9) | Amount of generation (%) of CD4+IFNg+ T cells ([2]; 10 μM) | Amount of generation (%) of CD4+IFNg+ T cells ([2]; 50 μM) | Amount of generation (%) of CD4+IFNg+ T cells ([2]; 100 μM) | degree of generation of CD4+IFNg+ T cells compared with the positive control ([2]; at 50 uM or more, concentration dependent) | Amount of generation (%) of CD4+IFNg+ T cells ([2]; 1 μM) | Amount of generation (%) of CD4+IFNg+ T cells ([2]; 5 μM) | degree of generation of CD4+IFNg+ T cells compared with the positive control ([2]; at 5 uM or more, concentration dependent) | degree of generation of CD4+IFNg+ T cells compared with the positive control ([2]; regardless of the concentration (10, 50, 100 uM)) |
| --- | --- | --- | --- | --- | --- | --- | --- | --- | --- | --- | --- | --- | --- | --- | --- |
| CC(=C(CCO)SSCC1CCCO1)N(C=O)Cc1cnc(C)nc1N (stereo in doubt) [Fursultiamine, fursultiamine] | reduced | reducing the degree of infiltration | significant recovery | reduced | reduced | 12.6% | 13.4% | 34.9% | 13.6% | 12.5% | significant reduction | – | – | – | – |
| C=CCSS/C(CCO)=C(/C)N(C=O)Cc1cnc(C)nc1N [Allithiamine, allithiamine] | – | – | – | – | – | – | – | 23.9% | – | – | – | 35.2% | 25.7% | significant reduction | – |
| C/C(=C(\CCOP(=O)(O)O)SC(=O)c1ccccc1)N(C=O)Cc1cnc(C)nc1N [Benfotiamine, benfotiamine] | – | – | – | – | – | – | – | 36.8% | 43.9% | 40.1% | – | – | – | – | no significant difference |
